From patent publication US20070059785A1, “Biomarkers in cancer” (SMITHKLINE BEECHAM CORPORATION, priority 2003, published 2007)
“Also recorded” adds a separate entry of the source.

Experiments:
[1] = test system: TGFα; test: Clinical tumor biopsies, TGFα by IHC; conditions: patient 425, inflammatory breast cancer, 1200 mg/d ditosylate salt, day 21 (day 0: 32)
Text: (§4) Erk1/2 (1:1200), erbB3 (1:10), heregulin (1:25), and TGFα (1:20) were also immunostained using the BenchMark™ with I-VIEW detection chemistry.
All subjects provided written informed consent.
“TGFα” refers to Transforming Growth Factor alpha as measured by immunohistochemistry and reported in OD;

[2] = target: T1, erbB2 (Homo sapiens, UniProt P04626); test: Tumor xenografts, activated and total erbB2 by quantitative IHC; type: in vivo, mice; conditions: HN5 and BT474 xenografts, 200 mg/kg oral once daily
[3] = target: T1, erbB2; test: Clinical tumor biopsies, erbB2 p-tyr by IHC; conditions: patient 361, 1200 mg/day, Day 21, data not shown
[4] = test system: Erk1/2; test: Western blot of p-Erk1/2 in Hb4a cells; type: cell-based, human; conditions: 5 μM, 72 h, not reversed by EGF
Protocol: The EGFR overexpressing LICR-LON-HN5 head and neck carcinoma cell line, HN5, was kindly provided by Helmout Modjtahedi at the Institute of Cancer Research, Surrey, U.K.
(§1) For IP Western blots, equivalent amounts of protein were precleared with Protein G Plus/Protein A agarose overnight at 4° C. Precleared lysates were then incubated overnight at 4° C. with specific antibodies. Immune complexes were precipitated with Protein G Plus/Protein A agarose beads, washed in RIPA buffer and then boiled in sample loading buffer. Steady state levels of total Erk1/2 and activated Erk1/2 (p-Erk) as well as total AKT protein and activated AKT (p-AKT) protein were assessed by Western blot. […] Proteins were transferred to Immobilon-P or nitrocellulose membranes. Efficiency and equal loading of proteins was evaluated by Ponceau S staining. Membranes were blocked for 1 hr in TBS (25 mM Tris-HCl, pH 7.4, 150 mM NaCl, 2.7 mM KCl) containing 4% (w/v) lowfat milk or 3% BSA (w/v). Membranes were then probed with specific antibodies recognizing target proteins. Proteins were visualized with the SUPERSIGNAL® West Femto Maximum sensitivity substrate kit (Pierce).
Steady state levels of activated erbB2 and EGFR (p-Tyr/ErbB2 and p-Tyr/EGFR); total erbB2 and EGFR; activated Erk1/2 (p-Erk1/2) and total Erk1/2 were assessed by either IP Western or Western blot.

[5] = test system: AKT; test: HN5 tumor xenograft, p-AKT and total AKT by Western blot; type: in vivo, CD-1 nude mice
Protocol: (§2) Total Erk1/2, total AKT, activated Erk1/2 (p-Erk1/2), and activated AKT (p-AKT) were assessed by Western blot loading equal amounts of protein from tumor biopsies.
(§3) HN5 cells were grown in DMEM supplemented with 10% fetal bovine serum, sodium pyruvate and L-glutamine at 37° C. in a 95/5% air/CO2 atmosphere. […] Cells (2×10^6/mouse) in 0.2 ml were injected into the right flank of CD-1 nude mice. Female CD-1 nude mice were acquired from Charles River Laboratories. Mice were maintained in filter-topped cages in an aseptic environment with laminar flow filtered ventilation. […] Tumors were biopsied pre-treatment and 4 hours after the last dose. All animal surgery was conducted under aseptic conditions. For the initial biopsy, mice were anesthetized with isofluorane inhalation. The skin over the tumor was disinfected with iodine. A small hemostat was used to tease away the skin from the tumor, and scissors were used to make a 1 cm incision over the tumor. A scalpel and forceps were used to remove approximately 100 mg of tumor. The tumor was then frozen in liquid nitrogen. Wound clips were used to close the incision. The anesthetized mice were kept warm until they recovered mobility, usually less than 1-2 minutes. For the terminal biopsy, mice were euthanized with CO2 inhalation, and the remainder of the tumor excised. HN5 tumors were placed on dry ice in vials containing cold isopentane, and stored at −80 C prior to study. BT474 tumor samples were fixed for 2-3 hours in phosphatase inhibitor consisting of sodium fluoride and sodium pervanadate in 10% neutral buffered formalin. Following fixative treatment, BT474 samples were washed in water and stored in 70% ethanol prior to study. Cell extracts were prepared by homogenization in RIPA buffer at 4° C.
as §2

[6] = test system: Erk1/2; test: Clinical tumor biopsies, localization of total Erk1/2 by IHC; type: in vivo, human; conditions: patient 361, Day 21; baseline exclusively intra-nuclear; data not shown
Text: Upon activation, p-Erk1/2 relocates to the nucleus where it regulates transcription of a variety of genes involved in tumor growth, adhesion, and angiogenesis.

[7] = test system: pAKT; test: Clinical tumor biopsies, p-AKT by quantitative IHC
Text: “pAKT” refers to phosphorylated AKT as measured by immunohistochemistry and reported in OD;

[8] = test system: Erk1/2; test: HN5 tumor xenograft, p-Erk1/2 and total Erk1/2 by Western blot; type: in vivo, CD-1 nude mice
Protocol: as §2, §3, §2

[9] = test system: p-ERK; test: Antibody staining of p-ERK localization in MCF7/erbB2 cells; type: cell-based, human; conditions: 10 uM, results not shown
[10] = target: T1, erbB2; test: IP Western blot of p-Tyr/erbB2 in BT474 cells, with or without EGF; type: cell-based; set-up: endogenous in cells; conditions: BT474, 1 μM, 24 h serum-free; not reversed by EGF
Protocol: The erbB2 overexpressing human breast adenocarcinoma cell line, BT474, was obtained from the American Type Culture Collection (Rockville, M, USA). […] The EGFR overexpressing LICR-LON-HN5 head and neck carcinoma cell line, HN5, was kindly provided by Helmout Modjtahedi at the Institute of Cancer Research, Surrey, U.K.
Cell cultures were maintained in a humidified atmosphere of 5% CO2 at 37° C.
Protein concentrations were determined using a modification of the Bradford method (Bio-Rad Laboratory).
as §1, with “Proteins were visualized with the SUPERSIGNAL® West Femto Maximum sensitivity substrate kit (Pierce).” left out

[11] = test system: Heregulin; test: Clinical tumor biopsies, heregulin by IHC; conditions: patient 425, inflammatory breast cancer, 1200 mg/d ditosylate salt, day 21 (day 0: 5)
Protocol: as §4
“Heregulin”, a ligand that stimulates erbB3 (HER3) and HER4, was measured by immunohistochemistry and reported in OD.

[12] = test system: Erk1/2; test: Tumor xenografts, phospho-Erk1/2 and total Erk1/2 by quantitative IHC; type: in vivo, mice; conditions: data not shown
Text: DAB (Dako) was used as the chromogen.
Inhibition of erbB2/EGFR p-tyr in turn led to the inhibition of downstream activated, phospho-Erk1/2.

T1 sequence (P04626 23-1255): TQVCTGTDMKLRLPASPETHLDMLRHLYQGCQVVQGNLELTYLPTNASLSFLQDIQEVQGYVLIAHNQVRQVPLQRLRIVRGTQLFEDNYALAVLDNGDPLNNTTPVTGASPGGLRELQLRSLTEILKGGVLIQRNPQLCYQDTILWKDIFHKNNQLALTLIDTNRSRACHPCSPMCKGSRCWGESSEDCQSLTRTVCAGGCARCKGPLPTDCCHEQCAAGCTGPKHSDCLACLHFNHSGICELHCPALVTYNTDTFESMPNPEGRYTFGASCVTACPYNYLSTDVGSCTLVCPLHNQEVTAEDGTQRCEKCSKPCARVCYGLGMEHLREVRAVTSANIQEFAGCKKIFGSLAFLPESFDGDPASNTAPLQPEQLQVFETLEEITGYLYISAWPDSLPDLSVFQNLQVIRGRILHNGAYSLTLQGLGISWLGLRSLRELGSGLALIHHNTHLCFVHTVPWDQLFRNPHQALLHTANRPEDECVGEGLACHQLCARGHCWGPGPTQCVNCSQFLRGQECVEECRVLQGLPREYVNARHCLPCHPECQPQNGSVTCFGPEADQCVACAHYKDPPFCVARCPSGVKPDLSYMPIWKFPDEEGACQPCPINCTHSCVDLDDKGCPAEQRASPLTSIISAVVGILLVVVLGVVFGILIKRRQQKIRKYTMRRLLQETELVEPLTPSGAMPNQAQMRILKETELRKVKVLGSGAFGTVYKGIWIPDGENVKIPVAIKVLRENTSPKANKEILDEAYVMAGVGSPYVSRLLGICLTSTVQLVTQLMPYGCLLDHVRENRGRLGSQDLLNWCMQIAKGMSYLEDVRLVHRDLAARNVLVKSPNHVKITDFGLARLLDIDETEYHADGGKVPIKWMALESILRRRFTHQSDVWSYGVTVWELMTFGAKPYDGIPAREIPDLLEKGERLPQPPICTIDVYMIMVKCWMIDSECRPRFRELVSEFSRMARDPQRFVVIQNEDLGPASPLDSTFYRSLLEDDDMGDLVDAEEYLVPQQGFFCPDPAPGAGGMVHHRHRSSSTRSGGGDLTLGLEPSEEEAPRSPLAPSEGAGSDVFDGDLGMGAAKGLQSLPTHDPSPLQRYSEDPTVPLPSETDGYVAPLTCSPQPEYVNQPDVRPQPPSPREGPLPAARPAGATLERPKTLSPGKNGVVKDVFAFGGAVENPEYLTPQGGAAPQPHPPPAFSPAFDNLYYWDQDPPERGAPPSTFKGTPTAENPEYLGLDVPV

CS(=O)(=O)CCNCc1ccc(-c2ccc3ncnc(Nc4ccc(OCc5cccc(F)c5)c(Cl)c4)c3c2)o1 [GW572016, N-{3-Chloro-4-[(3-fluorobenzyl)oxy]phenyl}-6-[5-({[2-(methylsulfonyl)ethyl]amino}methyl)-2-furyl]-4-quinazolinamine]
TGFa [1]: 22 OD | erbB2 total protein [2]: neither EGFR nor erbB2 total protein was affected | activated erbB2 ([2]; data not shown): inhibition | erbB2 p-tyr [3]: had not decreased | baseline amount of p-Erk [4]: reduced; also recorded: decreased | effect on p-AKT ([5]; 10 mg/kg, data not shown): little effect | p-AKT in tumors ([5]; 30 mg/kg/dose): inhibited | total steady state AKT protein levels ([5]; 30 mg/kg/dose): without affecting | localization of total Erk1/2 staining [6]: almost entirely cytoplasmic | p-AKT OD ([7]; patient 361, breast, 1200 mg/d, day 21 (day 0: 36)): 24 OD | p-AKT OD ([7]; patient 362, adenocarcinoma unknown primary, 900 mg/d, day 21 (day 0: 61)): 81 OD | p-AKT OD ([7]; patient 363, sarcoma, 500 mg/d, day 21 (day 0: 19)): 32 OD | reduction of p-AKT ([7]; patient 364, 1600 mg/day, Day 21): 16% | p-AKT OD ([7]; patient 364, head & neck, 1600 mg/d, day 21 (day 0: 51)): 43 OD | p-AKT OD ([7]; patient 366, ovarian, 900 mg/d, day 21 (day 0: 22), aberrant staining, not considered valid): 47 OD | p-AKT OD ([7]; patient 367, adenocarcinoma unknown primary, 650 mg/d, day 21 (day 0: 35)): 25 OD | p-AKT OD ([7]; patient 369, head & neck, 1200 mg/d, day 21 (day 0: 24)): 7 OD | p-AKT OD ([7]; patient 371, breast, 900 mg/d, day 21 (day 0: 36)): 33 OD | p-AKT OD ([7]; patient 372, breast, 1200 mg/d, day 21 (day 0: 48)): 30 OD | pAKT ([7]; patient 425, inflammatory breast cancer, 1200 mg/d ditosylate salt, day 21 (day 0: 85)): 26 OD | intensity of pAkt staining, particularly in the nuclei ([7]; patient 425, post-treatment tumor sample, IHC, results not shown): greatly reduced | effect on p-Erk1/2 ([8]; 10 mg/kg, data not shown): little effect | p-Erk1/2 in tumors ([8]; 30 mg/kg/dose): inhibited | total steady state Erk1/2 protein levels ([8]; 30 mg/kg/dose): without affecting | intensity of staining for p-ERK in the nucleus vs control cells [9]: less | baseline levels of p-Tyr/erbB2 [10]: inhibited | Heregulin [11]: 8 OD | p-Erk1/2 levels [12]: reduced | total Erk1/2 protein [12]: unaffected
